Data as given in patent US9611275B2 (priority 2012, dated 2017).
Like-named read-outs stand apart in the source and are kept apart here.

Assays:
[1] = target: human O-GlcNAcase (Homo sapiens (Human), UniProt O60502); test: biochemical; format: biochemical; conditions: for Ki: read-out: OGA KI
[2] = target: O-GlcNAcase in rat PC-12 cells (Rattus norvegicus (Rat), UniProt Q8VIJ5); test: cell-based
Excerpt: Assay for Determination of Cellular Activity for Compounds that Inhibit O-GlcNAcase Activity
Inhibition of O-GlcNAcase, which removes O-GlcNAc from cellular proteins, results in an increase in the level of O-GlcNAcylated protein in cells. An increase in O-GlcNAcylated protein can be measured by an antibody, such as RL-2, that binds to O-GlcNAcylated protein. The amount of O-GlcNAcylated protein:RL2 antibody interaction can be measured by enzyme linked immunosorbant assay (ELISA) procedures.
A variety of tissue culture cell lines, expressing endogenous levels of O-GlcNAcase, can be utilized; examples include rat PC-12, and human U-87, or SK-N-SH cells. In this assay, rat PC-12 cells were plated in 96-well plates with approximately 10,000 cells/well. Compounds to be tested were dissolved in DMSO, either 2 or 10 mM stock solution, and then diluted with DMSO and water in a two-step process using a Tecan workstation. […] To prepare a cell lysate, the media from compound treated cells was removed, the cells were washed once with phosphate buffered saline (PBS) and then lysed for 5 minutes at room temperature in 50 μL of Phosphosafe reagent (Novagen Inc, Madison, Wis.) with protease inhibitors and PMSF. The cell lysate was collected and transferred to a new plate, which was then either coated to assay plates directly or frozen −80° C. until used in the ELISA procedure. If desired, the total protein concentration of samples is determined using 20 μL of the sample using the BCA method.
The plate was sealed and incubated at 37° C. for 2 hr with gentle shaking. The wells were then washed 3-times with 300 μl/well wash buffer. […] The plate was incubated for 60 min at 37° C. with gentle shaking. Each well was then washed 3-times with 300 μl/well wash buffer. The detection reagent was added, 100 μL/well of Amplex Ultra RED reagent (prepared by adding 30 μL of 10 mM Amplex Ultra Red stock solution to 10 ml PBS with 18 μL 3% hydrogen peroxide, H2O2). The detection reaction was incubated for 15 minutes at room temperature and then read with excitation at 530 nm and emission at 590 nm.

[3] = Assay for determination of apparent permeability (Papp), bi-directional transport; conditions: pig, LLC-PK1
[4] = purified human O-GlcNAcase 0.7 nM, pH 7.0, room temperature, Cheng-Prusoff
[5] = rat PC-12 cells, 24 hours treatment, increase in O-GlcNAcylated protein, read-out: Cell based ELISA EC50

human O-GlcNAcase, sequence (O60502 whole entry): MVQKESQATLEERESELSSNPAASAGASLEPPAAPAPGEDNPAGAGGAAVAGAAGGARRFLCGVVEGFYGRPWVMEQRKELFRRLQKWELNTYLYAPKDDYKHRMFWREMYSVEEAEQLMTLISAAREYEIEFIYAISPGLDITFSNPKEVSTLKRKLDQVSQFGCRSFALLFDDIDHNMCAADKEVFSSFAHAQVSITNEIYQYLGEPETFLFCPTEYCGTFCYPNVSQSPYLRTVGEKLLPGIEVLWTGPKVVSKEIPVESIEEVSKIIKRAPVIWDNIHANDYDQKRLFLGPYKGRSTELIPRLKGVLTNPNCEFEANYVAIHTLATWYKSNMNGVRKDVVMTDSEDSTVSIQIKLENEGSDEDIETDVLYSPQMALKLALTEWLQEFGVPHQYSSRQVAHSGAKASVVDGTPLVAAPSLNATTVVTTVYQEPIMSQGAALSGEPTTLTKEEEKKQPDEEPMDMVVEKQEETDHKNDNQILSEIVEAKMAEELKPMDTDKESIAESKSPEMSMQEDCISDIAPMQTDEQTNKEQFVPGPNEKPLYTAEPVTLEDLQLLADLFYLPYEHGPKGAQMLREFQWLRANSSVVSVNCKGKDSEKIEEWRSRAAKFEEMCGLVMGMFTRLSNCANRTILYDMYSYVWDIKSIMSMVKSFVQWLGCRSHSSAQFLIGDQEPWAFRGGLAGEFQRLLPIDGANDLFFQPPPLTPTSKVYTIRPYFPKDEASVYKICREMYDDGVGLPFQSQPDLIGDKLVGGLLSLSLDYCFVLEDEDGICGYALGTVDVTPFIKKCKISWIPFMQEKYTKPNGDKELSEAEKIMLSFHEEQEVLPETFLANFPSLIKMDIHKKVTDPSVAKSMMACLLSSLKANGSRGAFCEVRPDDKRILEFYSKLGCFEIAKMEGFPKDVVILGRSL
O-GlcNAcase in rat PC-12 cells, sequence (Q8VIJ5 whole entry): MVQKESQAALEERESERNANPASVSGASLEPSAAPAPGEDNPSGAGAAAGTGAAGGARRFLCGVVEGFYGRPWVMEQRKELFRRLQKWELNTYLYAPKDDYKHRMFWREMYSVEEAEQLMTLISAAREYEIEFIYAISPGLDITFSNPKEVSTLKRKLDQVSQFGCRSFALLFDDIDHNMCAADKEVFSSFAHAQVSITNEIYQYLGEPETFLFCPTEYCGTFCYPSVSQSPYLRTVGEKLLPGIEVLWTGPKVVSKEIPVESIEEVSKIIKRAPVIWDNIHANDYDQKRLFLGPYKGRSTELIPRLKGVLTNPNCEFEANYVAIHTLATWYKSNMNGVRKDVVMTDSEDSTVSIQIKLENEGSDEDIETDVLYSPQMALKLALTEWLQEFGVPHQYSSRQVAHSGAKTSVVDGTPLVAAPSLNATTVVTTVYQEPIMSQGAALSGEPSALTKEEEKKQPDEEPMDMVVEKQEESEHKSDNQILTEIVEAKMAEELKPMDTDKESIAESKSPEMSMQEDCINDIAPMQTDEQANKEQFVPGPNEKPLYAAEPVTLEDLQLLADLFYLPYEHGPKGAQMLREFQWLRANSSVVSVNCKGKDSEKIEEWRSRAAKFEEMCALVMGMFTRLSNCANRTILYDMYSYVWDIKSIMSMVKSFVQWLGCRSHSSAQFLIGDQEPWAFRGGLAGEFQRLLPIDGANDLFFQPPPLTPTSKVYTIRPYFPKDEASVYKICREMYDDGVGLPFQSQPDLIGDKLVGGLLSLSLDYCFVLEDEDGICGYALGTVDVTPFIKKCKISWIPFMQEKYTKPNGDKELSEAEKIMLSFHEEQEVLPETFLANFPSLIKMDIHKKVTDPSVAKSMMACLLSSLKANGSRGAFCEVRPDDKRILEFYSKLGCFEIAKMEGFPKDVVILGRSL

Row | Structure (SMILES) | Ki [1, 4] [nM] | Papp at 3 h, 1 μM [3] [×10⁻⁶ cm/s] | also measured
1 | CN(C)C1=N[C@@H]2[C@@H](O)[C@H](O)[C@@H]([C@@](CCc3ccccc3)(OCc3ccccc3)C(F)(F)F)O[C@@H]2S1 [Example 76, (3aR,5S,6S,7R,7aR)-5-((R)-2-(benzyloxy)-1,1,1-trifluoro-4-phenylbutan-2-yl)-2-(dimethylamino)-5,6,7,7a-tetrahydro-3aH-pyrano[3,2-d]thiazole-6,7-diol] | 726 | – | –
2 | CN(C)C1=N[C@@H]2[C@@H](O)[C@H](O)[C@@H]([C@@H](OCc3ccc(Cc4ccccc4)cc3)C(F)(F)F)O[C@@H]2S1 [Example 45, (3aR,5S,6S,7R,7aR)-5-((R)-1-(4-benzylbenzyloxy)-2,2,2-trifluoroethyl)-2-(dimethylamino)-5,6,7,7a-tetrahydro-3aH-pyrano[3,2-d]thiazole-6,7-diol] | – | – | Ki [1]: 1.97 nM; EC50 [2]: 128 nM
3 | CN(C)C1=N[C@@H]2[C@@H](O)[C@H](O)[C@@H]([C@@H](OCc3ccc(-c4ccccc4)cc3)C(F)(F)F)O[C@@H]2S1 [Example 44, (3aR,5S,6S,7R,7aR)-5-((R)-1-(biphenyl-4-ylmethoxy)-2,2,2-trifluoroethyl)-2-(dimethylamino)-5,6,7,7a-tetrahydro-3aH-pyrano[3,2-d]thiazole-6,7-diol] | – | – | Ki [1]: 3.05 nM
4 | CN(C)C1=N[C@@H]2[C@@H](O)[C@H](O)[C@@H]([C@@H](OCc3ccc(C(F)(F)F)cc3)C(F)(F)F)O[C@@H]2S1 [Example 66, (3aR,5S,6S,7R,7aR)-2-(dimethylamino)-5-((R)-2,2,2-trifluoro-1-(4-(trifluoromethyl)benzyloxy)ethyl)-5,6,7,7a-tetrahydro-3aH-pyrano[3,2-d]thiazole-6,7-diol] | – | 28.2 | Ki [1]: 2.32 nM; EC50 [2]: 13.5 nM
5 | CNC1=N[C@@H]2[C@@H](O)[C@H](O)[C@@H]([C@@H](OCc3ccc(C)cc3)C(F)(F)F)O[C@@H]2S1 [Example 85, (3aR,5S,6S,7R,7aR)-2-(methylamino)-5-((R)-2,2,2-trifluoro-1-(4-mcthylbenzyloxy)ethyl)-5,6,7,7a-tetrahydro-3aH-pyrano[3,2-d]thiazole-6,7-diol] | 3.11 | 26.3 | –
6 | CN(C)C1=N[C@@H]2[C@@H](O)[C@H](O)[C@@H]([C@@H](OCc3ccc(CCCF)cc3)C(F)(F)F)O[C@@H]2S1 [Example 71, (3aR,5S,6S,7R,7aR)-2-(dimethylamino)-5-((R)-2,2,2-trifluoro-1-(4-(3-fluoropropyl)benzyloxy)ethyl)-5,6,7,7a-tetrahydro-3aH-pyrano[3,2-d]thiazole-6,7-diol] | 0.78 | 34.6 | EC50 [2, 5]: 30.8 nM
7 | CN(C)C1=N[C@@H]2[C@@H](O)[C@H](O)[C@@H]([C@@H](OCc3ccccc3)C(F)(F)F)O[C@@H]2S1 [Example 39, (3aR,5S,6S,7R,7aR)-5-((R)-1-(benzyloxy)-2,2,2-trifluoroethyl)-2-(dimethylamino)-5,6,7,7a-tetrahydro-3aH-pyrano[3,2-d]thiazole-6,7-diol] | 2.43 | – | EC50 [2, 5]: 36.2 nM
8 | CNC1=N[C@@H]2[C@H]3OC(C)(C)O[C@@H]3[C@@H](C(OCc3ccc(F)cc3)C(F)(F)F)O[C@@H]2S1 (stereo in doubt) [Example 117, (1R,2R,6R,8S,9S)—N,11,11-trimethyl-8-[(1S)-2,2,2-trifluoro-1-[(4-fluorophenyl)methoxy]ethyl]-7,10,12-trioxa-5-thia-3-azatricyclo[7.3.0.0[2,6]]dodec-3-en-4-amine] | – | – | KI values for inhibition of O-GlcNAcase ([1]; units given within the value): does not possess inhibitory activity in the aforementioned range
9 | CNC1=N[C@@H]2[C@@H](O)[C@H](O)[C@@H]([C@@H](OCc3ccc(CCF)cc3)C(F)(F)F)O[C@@H]2S1 [Example 87, (3aR,5S,6S,7R,7aR)-2-(methylamino)-5-((R)-2,2,2-trifluoro-1-(4-(2-fluoroethyl)benzyloxy)ethyl)-5,6,7,7a-tetrahydro-3aH-pyrano[3,2-d]thiazole-6,7-diol] | – | – | Ki [1]: 0.71 nM; EC50 [2]: 46.4 nM
10 | CCNC1=N[C@@H]2[C@@H](O)[C@H](O)[C@@H]([C@@H](OCc3ccc(OC)cc3)C(F)(F)F)O[C@@H]2S1 [Example 96, (3aR,5S,6S,7R,7aR)-2-(ethylamino)-5-((R)-2,2,2-trifluoro-1-(4-methoxybenzyloxy)ethyl)-5,6,7,7a-tetrahydro-3aH-pyrano[3,2-d]thiazole-6,7-diol] | 12.5 | 30.1 | –
11 | CN(C)C1=N[C@@H]2[C@@H](O)[C@H](O)[C@@H]([C@@H](N(C)C)C(F)(F)F)O[C@@H]2S1 [Example 17, (3aR,5R,6S,7R,7aR)-2-(dimethylamino)-5-((R)-1-(dimethylamino)-2,2,2-trifluoroethyl)-5,6,7,7a-tetrahydro-3aH-pyrano[3,2-d]thiazole-6,7-diol] | 41.9 | 31.2 | –
12 | CCCO[C@H]([C@H]1O[C@@H]2SC(NC)=N[C@@H]2[C@@H](O)[C@@H]1O)C(F)(F)F [Example 79, (3aR,5S,6S,7R,7aR)-2-(methylamino)-5-((R)-2,2,2-trifluoro-1-propoxyethyl)-5,6,7,7a-tetrahydro-3aH-pyrano[3,2-d]thiazole-6,7-diol] | 3.77 | 20.4 | EC50 [2, 5]: 173 nM
13 | CN(C)C1=N[C@@H]2[C@@H](O)[C@H](O)[C@@H](C(OCc3cccc(F)c3)C(F)(F)F)O[C@@H]2S1 (stereo in doubt) [Example 64, (3aR,5S,6S,7R,7aR)-2-(dimethylamino)-5-((S)-2,2,2-trifluoro-1-(3-fluorobenzyloxy)ethyl)-5,6,7,7a-tetrahydro-3aH-pyrano[3,2-d]thiazole-6,7-diol] | – | 29.9 | Ki [1]: 1.32 nM; EC50 [2, 5]: 8.43 nM
14 | CN(C)C1=N[C@@H]2[C@@H](O)[C@H](O)[C@@H]([C@@H](OCCCCCF)C(F)(F)F)O[C@@H]2S1 [Example 31, (3aR,5S,6S,7R,7aR)-2-(dimethylamino)-5-((R)-2,2,2-trifluoro-1-(5-fluoropentyloxy)ethyl)-5,6,7,7a-tetrahydro-3aH-pyrano[3,2-d]thiazole-6,7-diol] | 4.4 | 31.3 | EC50 [2, 5]: 22.3 nM
15 | COc1ccc(CO[C@H]([C@H]2O[C@@H]3SC(N(C)C)=N[C@@H]3[C@@H](O)[C@@H]2O)C(F)(F)F)cc1 [Example 52, (3aR,5S,6S,7R,7aR)-2-(dimethylamino)-5-((R)-2,2,2-trifluoro-1-(4-methoxybenzyloxy)ethyl)-5,6,7,7a-tetrahydro-3aH-pyrano[3,2-d]thiazole-6,7-diol] | 1.38 | 30.5 | EC50 [2, 5]: 21.3 nM
16 | CNC1=N[C@@H]2[C@@H](O)[C@H](O)[C@@H]([C@](C)(O)C(F)(F)F)O[C@@H]2S1 [Example 158, (3aR,5S,6S,7R,7aR)-2-(methylamino)-5-((S)-1,1,1-trifluoro-2-hydroxypropan-2-yl)-5,6,7,7a-tetrahydro-3aH-pyrano[3,2-d]thiazole-6,7-diol] | – | 2.9 | Ki ([1]; comparative compounds described in PCT/US11/059668): 1.29 nM
17 | COc1ccc(CO[C@@H](C)[C@H]2O[C@@H]3SC(N(C)C)=N[C@@H]3[C@@H](O)[C@@H]2O)cc1 [Example 109, (3aR,5S,6S,7R,7aR)-2-(dimethylamino)-5-((S)-1-(4-methoxybenzyloxy)ethyl)-5,6,7,7a-tetrahydro-3aH-pyrano[3,2-d]thiazole-6,7-diol] | – | 26.3 | –
18 | CN(C)C1=N[C@@H]2[C@@H](O)[C@H](O)[C@@H]([C@@H](Oc3ccccc3)C(F)(F)F)O[C@@H]2S1 [Example 107, (3aR,5S,6S,7R,7aR)-2-(dimethylamino)-5-((R)-2,2,2-trifluoro-1-phenoxyethyl)-5,6,7,7a-tetrahydro-3aH-pyrano[3,2-d]thiazole-6,7-diol] | – | 31.3 | –
19 | CCCCCO[C@H]([C@H]1O[C@@H]2SC(N(C)C)=N[C@@H]2[C@@H](O)[C@@H]1O)C(F)(F)F [Example 27, (3aR,5S,6S,7R,7aR)-2-(dimethylamino)-5-((R)-2,2,2-trifluoro-1-(pentyloxy)ethyl)-5,6,7,7a-tetrahydro-3aH-pyrano[3,2-d]thiazole-6,7-diol] | – | 32 | –
20 | CNC1=N[C@@H]2[C@@H](O)[C@H](O)[C@@H]([C@@H](OCCCc3ccc(F)cc3)C(F)(F)F)O[C@@H]2S1 [Example 83, (3aR,5S,6S,7R,7aR)-2-(methylamino)-5-((R)-2,2,2-trifluoro-1-(3-(4-fluorophenyl)propoxy)ethyl)-5,6,7,7a-tetrahydro-3aH-pyrano[3,2-d]thiazole-6,7-diol] | – | 29.7 | –
21 | CNC1=N[C@@H]2[C@@H](O)[C@H](O)[C@@H]([C@H](Oc3ccccc3)C(F)(F)F)O[C@@H]2S1 [Example 3, (3aR,5S,6S,7R,7aR)-2-(methylamino)-5-((S)-2,2,2-trifluoro-1-phenoxyethyl)-5,6,7,7a-tetrahydro-3aH-pyrano[3,2-d]thiazole-6,7-diol] | – | 28.3 | –
22 | CNC1=N[C@@H]2[C@@H](O)[C@H](O)[C@@H]([C@@H](OCc3ccc(OC)c(C(F)(F)F)c3)C(F)(F)F)O[C@@H]2S1 [Example 98, (3aR,5S,6S,7R,7aR)-2-(methylamino)-5-((R)-2,2,2-trifluoro-1-(4-methoxy-3-(trifluoromethyl)benzyloxy)ethyl)-5,6,7,7a-tetrahydro-3aH-pyrano[3,2-d]thiazole-6,7-diol] | – | 29.1 | –
23 | COc1ccc(CO[C@@H]([C@H]2O[C@@H]3SC(N(C)C)=N[C@@H]3[C@@H](O)[C@@H]2O)C(F)(F)F)cc1 [Example 53, (3aR,5S,6S,7R,7aR)-2-(dimethylamino)-5-((R)-2,2,2-trifluoro-1-(4-mcthoxybenzyloxy)ethyl)-5,6,7,7a-tetrahydro-3aH-pyrano[3,2-d]thiazole-6,7-diol] | – | 33 | –
24 | CN[C@H]([C@H]1O[C@@H]2SC(N(C)C)=N[C@@H]2[C@@H](O)[C@@H]1O)C(F)(F)F [Example 16, (3aR,5R,6S,7R,7aR)-2-(dimethylamino)-5-((R)-2,2,2-trifluoro-1-(methylamino)ethyl)-5,6,7,7a-tetrahydro-3aH-pyrano[3,2-d]thiazole-6,7-diol] | – | 15.5 | –
